Several values for one entry are separate records, joined by “and”; a condition that tells them apart may be missing. Identical values can stand only once. Marks after values point to notes of the source that are not given here.
Legend:
Type in all cases: physicochemical
[1] = Nuclear magnetic relaxation dispersion (NMRD) profiles, Solomon-Bloembergen-Morgan fit; settings: for τs0 (electronic relaxation time at zero field) / r1p 20 MHz 25° C. / a (distance of closest approach of outer-sphere water protons) / Δ^2 (average quadratic transient zero field splitting) / τv (electronic correlation time) / q / τR (rotational correlation time): copper free; for r1p 20 MHz 25° C.: 0.5 mM, 20 mM HEPES pH 7; for a (distance of closest approach of outer-sphere water protons) / Δ^2 (average quadratic transient zero field splitting) / τv (electronic correlation time): best-fit value; for q: fixed in the fitting procedure; for τR (rotational correlation time): not experimentally determined, assumed equal to corresponding q ≠ 0 complex (CG5: average of the other complexes)
Description: FIG. 9. ^1H Nuclear magnetic relaxation dispersion profiles of CG3 and CG3+Cu^+ acquired at 25° C. The solid lines represent the best fit profiles.
As a secondary, independent set of experiments to further probe the mechanisms of copper ion sensing by the CG contrast agents, we also performed nuclear magnetic relaxation dispersion (NMRD) measurements of these sensors in the absence and in the presence of copper ions using a field cycling relaxometer (FIG. 9). The profiles obtained were analyzed following Solomon-Bloembergen-Morgan theory^36-38 for the inner-sphere relaxivity and the Freed model^115 for the outer-sphere relaxivity, fixing the diffusion coefficient (D) at […], the distance between Gd^3+ and the inner sphere water protons (r) at 3.1 Å, and the inner sphere exchange lifetime (τM) at 160 ns, the reported value for the parent complex Gd^3+-DO3A. Profiles were obtained for all compounds in the copper-free state. Profiles in the presence of Cu^n+ were obtained for CG2-4 (Cu^+) and CG6 (Cu^2+).
In fact, the measured outer-sphere relaxivities were so low that, in order to obtain a reasonable fit, the distance of closest approach of outer-sphere water protons (a) was allowed to vary. The distances obtained for the CG complexes (4.2-4.8 Å) were markedly longer than what is observed for typical Gd^3+ contrast agents with greater water access (3.8-4 Å). These values correlate with the copper-free relaxivities of CG2-6; longer a values give lower relaxivities and shorter a values give higher relaxivities. For Cu^+-sensing agents CG2-4, the estimated change in q of 2 as determined by DIS measurements was also observed in the fitted NMRD data. In fact, any attempt to fit the observed NMRD profiles with q=1 led to very poor agreement between experimental and calculated values. The change in q of 1 for CG6 upon addition of Cu^2+ as determined by NMRD is consistent with the lower turn-on response observed with this complex compared to CG2-4. The reduced q modulation for CG6 relative to CG2-4 could indicate that the carboxylic acid moiety used for Cu^2+ binding also interacts with the Gd^3+ center in the Cu^2+-bound state. The fitted rotational correlation times (τR) for copper-bound CG complexes all fall within the range expected for Gd^3+ complexes with molecular weights of 700-800 D. τR values for copper-free CG2-6 were fixed to values close to their copper-bound analogues as fits of NMRD data for q=0 complexes are not sensitive to small changes in τR. The values of Δ^2 (average quadratic transient zero field splitting), τv (electronic correlation time), and τs0 (electronic relaxation time at zero field), which govern the electronic relaxation time, are relatively similar to each other. These NMRD values are closer to those of Gd^3+-DTPA than Gd^3+-DOTA, reflecting the asymmetry of CG2-6.^64

[2] = Electrochemical Cu2+/Cu+ reduction potentials of copper-bound CG complexes; settings: PBS buffer, pH 7.4
Description: (§1) CG6 is a unique member of the CG family that is equally responsive to both Cu^+ and Cu^2+. Addition of either Cu^+ or Cu^2+ to CG6 triggers a maximum 73% relaxivity turn-on from r1=2.2 mM^−1s^−1 to r1=3.8 mM^−1s^−1. […] On the other hand, copper-bound CG6, which responds to both Cu^+ and Cu^2+, has the least positive Cu^2+/Cu^+ reduction potential at +0.13 V.

[3] = Metal ion selectivity of relaxivity response (competing metal ions alone or with added copper); settings: relaxivity at 60 MHz, 20 mM HEPES, pH 7, 37° C.
Description: FIG. 6. Relaxivity responses of CG2 to various metal ions. White bars represent the addition of an excess of the appropriate metal ion (10 mM for Na^+, 2 mM for K^+, Mg^2+, and Ca^2+, and 0.2 mM for Fe^2+, Fe^3+, Cu^2+) to a 0.2 mM solution of CG2. Response to Zn^2+ was measured both at 0.2 mM Zn^2+ (Zn^2+1×) and 2 mM Zn^2+ (Zn^2+10×). Black bars represent the subsequent addition of 0.2 mM Cu^+ to the CG2 solution. Relaxivity measurements were acquired at 37° C. in 20 mM HEPES buffer, pH 7, at a proton Larmor frequency of 60 MHz.
The potential ability of this new family of CG sensors to sense bioavailable copper pools in either or both its predominant oxidation states represents a significant advance over the initial CG1 compound.

[4] = Longitudinal relaxivity (r1) turn-on response to Cu+ from T1 measurements at 60 MHz; settings: pH 7, 37° C.; for r1 (1 equiv Cu): 20 mM HEPES buffer
Description: (§2) The longitudinal relaxivity values for the CG contrast agents in the absence or presence of copper ions were determined using T1 measurements at 60 MHz. Studies were performed at 37° C. in 20 mM HEPES buffered to pH 7, and solutions of the purified CG sensors for relaxivity experiments contained 0.2 mM Gd^3+ as determined by ICP-OES. Spectroscopic data are collected in Table 1.
Upon addition of up to 1 equiv of copper ions, the relaxivity values of the CG contrast agents increase, establishing the ability of these probes to sense copper using the MR modality (Table 1, FIG. 3). CG2, CG3, CG4, and CG5 respond to Cu^+ with relaxivity increases ranging from 92% to 360%. […] These values represent the largest relaxivity enhancements observed to date for metal-activated MR contrast agents and a ca. 9-fold improvement in copper ion response compared to CG1 (41% increase). The observed differences in turn-on Cu^+ responses for benzyl-substituted CG4 (290% increase) versus methyl-substituted CG5 (92% increase) with the same pyridyl-thioether receptor show the marked effects that small peripheral substitutions can have on relaxivity properties.

[5] = Longitudinal relaxivity (r1) from T1 measurements at 60 MHz, absence of copper; settings: for r1 (no Cu): no copper, 60 MHz, 20 mM HEPES buffer, pH 7, 37° C., 0.2 mM Gd^3+
Description: as §2
Nuclear magnetic relaxation dispersion (NMRD) experiments provide supporting evidence for this proposal (vide infra).

[6] = Longitudinal relaxivity (r1) turn-on response to Cu2+ from T1 measurements at 60 MHz; settings: pH 7, 37° C.
Description: as §2, §1

[7] = Dysprosium-induced 17O NMR shift (DIS) experiments for q; settings: for q (estimated number of inner-sphere water molecules): calculated from q = 9 DyCl3
Description: FIG. 8. Plot of [DyCG2] vs. −Δ ppm of the ^17O signal of H2O in the absence and presence of 1 equiv Cu^+. Spectra were acquired at room temperature in 20 mM HEPES buffer, pH 7, at a ^17O Larmor frequency of 67.8 MHz.
To circumvent these issues, we turned our attention to an alternative method for obtaining q values, namely the application of ^17O NMR spectroscopy to Dy^3+ analogs of the CG sensors (DyCG2-6).^114 Specifically, interactions of water ligands with paramagnetic Dy^3+ ions lead to an upfield shift of the ^17O signals of H2O in a manner proportional to both the concentration of Dy^3+ and q. Moreover, this lanthanide-induced shift is largely insensitive to the non-water ligands coordinated to the paramagnetic metal center.^114 Dysprosium-induced shift (DIS) experiments for CG2 and CG3 were performed in 20 mM HEPES buffered to pH 7; CG4 and CG5 spectra were acquired in 10% acetonitrile in 20 mM HEPES buffered to pH 7 owing to solubility and stability of the Cu^+-bound complexes at higher Dy^3+ concentrations required for the DIS measurements (1-200 mmol/kg H2O). Dy concentrations were calculated using molality (with respect to H2O) since the ^17O shift represents the interaction between Dy^3+ and H2O; addition of CH3CN aids in stabilizing certain complexes but should not affect the DIS. The spectral results were calibrated to a DyCl3 standard (q=9) to determine the number of bound water molecules for the CG sensors with and without added Cu^+. A plot of varying DyCl3 concentrations versus DIS in pH 7 HEPES buffer has a slope of 324 ppm/(mol/kg H2O), which corresponds to a 36 ppm/(mol/kg H2O) shift per bound water molecule.
The effects of DyCG2 on the chemical shift of ^17O-labeled H2O were determined in the absence and presence of 1 equiv Cu^+ at various concentrations of Dy^3+ (FIG. 8). In the absence of Cu^+, the measured ^17O shift response for DyCG2 is 9 ppm/(mol/kg H2O), corresponding to q=0.3. When 1 equiv of Cu^+ is added, the observed shift response increases to 72 ppm/(mol/kg H2O), corresponding to q=2.0. […] DIS measurements of DyCG4 and DyCG5 without Cu^+ show slopes of 7 ppm/(mol/kg H2O) (q=0.2) and 12 ppm/(mol/kg H2O) (q=0.3), respectively. Cu^+ binding increases the DIS slopes for DyCG4 and DyCG5 to […] ([…]) and 41 ppm/(mol/kg H2O) (q=1.0), respectively.

[8] = 10% CH3CN in 20 mM HEPES pH 7, 1 equiv Cu^+
[9] = 10% CH3CN in 20 mM HEPES pH 7, no Cu^+
[10] = 20 mM HEPES, pH 7, 1 equiv Cu^+

With `O=C([O-])CN1CCN(CC(=O)[O-])CCN(Cc2cccc(CN3CCSCCSCCSCC3)n2)CCN(CC(=O)[O-])CC1.[Gd+3]` [CG3] as the molecule, how does the “τs0 (electronic relaxation time at zero field)” value [1] read?
Its value is 96 ps.

What about the “r1p 20 MHz 25° C.” value [1] of the same molecule?
The value was 1.6 mM⁻¹ s⁻¹.

What about the “a (distance of closest approach of outer-sphere water protons)” value [1] of the same molecule?
Its value is 4.7 ± 0.09 Å.

And the “Δ^2 (average quadratic transient zero field splitting)” value [1]?
Its value is 3.2 ± 0.7 10^19 s^−2.

What about the “τv (electronic correlation time)” value [1] of the same molecule?
The value was 27 ± 4.4 ps.

What about the q [1] of the same molecule?
Its q is 0^c.

What about the “τR (rotational correlation time)” value [1] of the same molecule?
Its value is 130^d ps.

What about the “Cu^2+/+ E1/2” value [2] of the same molecule?
The value was 0.58 V vs. SHE.

And the “redox specificity of relaxivity response (Cu^+ vs Cu^2+)” value [3]?
The value was “give turn-on relaxivity increases with Cu^+ but do not respond to Cu^2+”.

What about the “r1 (1 equiv Cu)” value [4] of the same molecule?
The value was 6.9 mM^−1s^−1 and 6.9^b mM^−1s^−1.

And the “r1 (no Cu)” value [5]?
Its value is 1.5 mM⁻¹ s⁻¹.

For `O=S(=O)([O-])[O-].[Cu+2]` [CuSO4], which relaxivity ([5]; 20 mM HEPES buffer at 60 MHz and 37° C.) is on record?
The relaxivity was < 0.1 mM⁻¹ s⁻¹.

Which results are given for `CCSCCN(CC(=O)[O-])Cc1cccc(CN2CCN(CC(=O)[O-])CCN(CC(=O)[O-])CCN(CC(=O)[O-])CC2)n1.[Gd+3]` [CG6]?
% increase in r1 ([6]; 1 equiv Cu^2+ vs no Cu, 20 mM HEPES): 73%; r1 (1 equiv Cu) ([6]; 1 equiv Cu^2+, 20 mM HEPES buffer): 3.8 mM^−1s^−1 and 3.8^b,c mM^−1s^−1; τs0 (electronic relaxation time at zero field) [1]: 61 ps; r1p 20 MHz 25° C. [1]: 2.2 mM⁻¹ s⁻¹; a (distance of closest approach of outer-sphere water protons) [1]: 4.2 ± 0.13 Å; Δ^2 (average quadratic transient zero field splitting) [1]: 8.4 ± 2.0 10^19 s^−2; τv (electronic correlation time) [1]: 16 ± 2.7 ps; q [1]: 0^c; τR (rotational correlation time) [1]: 80^d ps; change in q ([1]; upon addition of Cu^2+, determined by NMRD): 1; redox specificity of relaxivity response (Cu^+ vs Cu^2+) [3]: responds to both Cu^+ and Cu^2+ with the same relaxivity turn-on; % increase in r1 ([4]; 1 equiv Cu^+ vs no Cu, 20 mM HEPES): 73%; r1 (1 equiv Cu) [4]: 3.8 mM^−1s^−1 and 3.8^b,c mM^−1s^−1; r1 (no Cu) [5]: 2.2 mM⁻¹ s⁻¹

Which “−Δ ppm/[Dy] (DIS slope)” value [7, 8] does the source give for `CCSCCN(Cc1ccccc1)Cc1cccc(CN2CCN(CC(=O)[O-])CCN(CC(=O)[O-])CCN(CC(=O)[O-])CC2)n1.[Dy+3]` [DyCG4] here?
Its value is 84 ppm/(mol/kg H2O).

And the “q (estimated number of inner-sphere water molecules)” value [7, 8]?
Its value is 2.1.

And the “−Δ ppm/[Dy] (DIS slope)” value [7, 9]?
The value was 7 ppm/(mol/kg H2O).

With `O=C([O-])CN1CCN(CC(=O)[O-])CCN(Cc2cccc(CN3CCSCCSCCSCC3)n2)CCN(CC(=O)[O-])CC1.[Dy+3]` [DyCG3] as the molecule, how does the “−Δ ppm/[Dy] (DIS slope)” value [7, 10] read?
The value was 79 ppm/(mol/kg H2O).

And the “q (estimated number of inner-sphere water molecules)” value [7, 10]?
Its value is 2.2.

And the “−Δ ppm/[Dy] (DIS slope)” value ([7]; 20 mM HEPES, pH 7, no Cu^+)?
Its value is 11 ppm/(mol/kg H2O).

With `CCSCCN(C)Cc1cccc(CN2CCN(CC(=O)[O-])CCN(CC(=O)[O-])CCN(CC(=O)[O-])CC2)n1.[Dy+3]` [DyCG5] as the molecule, how does the “−Δ ppm/[Dy] (DIS slope)” value [7, 8] read?
Its value is 41 ppm/(mol/kg H2O).

What about the “q (estimated number of inner-sphere water molecules)” value [7, 8] of the same molecule?
The value was 1.0.

And the “−Δ ppm/[Dy] (DIS slope)” value [7, 9]?
The value was 12 ppm/(mol/kg H2O).

Which results are given for `CCSCCN(CCSCC)Cc1cccc(CN2CCN(CC(=O)[O-])CCN(CC(=O)[O-])CCN(CC(=O)[O-])CC2)n1.[Dy+3]` [DyCG2]?
−Δ ppm/[Dy] (DIS slope) [7, 10]: 72 ppm/(mol/kg H2O); q (estimated number of inner-sphere water molecules) [7, 10]: 2.0; −Δ ppm/[Dy] (DIS slope) ([7]; 20 mM HEPES, pH 7, no Cu^+): 9 ppm/(mol/kg H2O)
